Among the data in patent US8546377B2 (AbbVie Inc., priority 2009, dated 2013) are EC50 and Emax values, retold here.

One assay has as its target T1, 5HT2B receptors (Homo sapiens, UniProt P41595).
T1 construct: expressed in transfected cells; host or cells: CHO-K1 cells
Nature of the assay: Human 5-HT2B functional assay in CHO-K1 cells (calcium flux, FLIPR). It counts as cell-based. The protocol:
(§1) (iii) Human 5-HT2C and 5-HT2B Functional Assay in CHO-K1 Cells
(§2) CHO-K1 cells over-expressing 5HT2C or 5HT2B receptors were grown in 1272 cm^2 flasks to 70-80% confluency in UltraCHO media supplemented with 1% dialyzed fetal bovine serum (FBS), 250 μg/mL zeocin, 100 U/mL penicillin/streptomycin, and 400 μg/mL geneticin. The cells were dissociated from the flasks using 0.05% trypsin, resuspended in freezing media and stored in liquid nitrogen until use. Calcium flux experiments were done using frozen cells. The cells were diluted in media containing 1% dialyzed FBS and 100 U/mL penicillin/streptomycin and plated into 384-well poly-D-Lysine coated plates (15,000 cells/well). Then the plates were incubated overnight in a cell incubator at 37° C., 5% CO2. On the next day, the growth media was replaced with media without FBS and further incubated overnight. On day three, the changes in intracellular Ca^2+ were determined using calcium sensitive fluorescent dye, Ca4 (MDS Analytical Technologies, Sunnyvale, Calif.) by loading 15 μL of diluted dye with 2.5 mM probenecid into the cells containing media and incubated at room temperature for 60 minutes in dark.
(§3) Fluorescence measurements were read at 25° C. at an excitation wavelength of 480 nm and an emission wavelength of 530 nm in FLIPR (MDS). Baseline fluorescence was measured for the first 10 seconds and then 15 μL of 4× concentrations of serotonin/test compounds was added to the cell plate. The fluorescence intensity was captured every second for the first 1 minute followed by every 5 seconds for an additional 2 minutes. The increase in fluorescent response was determined and was normalized to the response of serotonin. The concentration response of compounds was done from a starting concentration of 10 μM, 1:10 dilution across 6 wells with a final dimethyl sulfoxide concentration of 0.2% and was fitted using a 4-parameter logistic equation. The concentration at which a compound exerts half its maximal effect was named as ‘effective concentration 50’ or ‘EC50’.
(§4) Emax is the maximum functional response or efficacy expressed as a percentage relative to the effect of serotonin.
Background: Calcium assays in cells follow changes in intracellular calcium, usually with a dye or a luminescent sensor.

The next assay concerns the target T2, 5HT2C receptors (Homo sapiens, UniProt P28335).
T2 sequence (P28335 33-458): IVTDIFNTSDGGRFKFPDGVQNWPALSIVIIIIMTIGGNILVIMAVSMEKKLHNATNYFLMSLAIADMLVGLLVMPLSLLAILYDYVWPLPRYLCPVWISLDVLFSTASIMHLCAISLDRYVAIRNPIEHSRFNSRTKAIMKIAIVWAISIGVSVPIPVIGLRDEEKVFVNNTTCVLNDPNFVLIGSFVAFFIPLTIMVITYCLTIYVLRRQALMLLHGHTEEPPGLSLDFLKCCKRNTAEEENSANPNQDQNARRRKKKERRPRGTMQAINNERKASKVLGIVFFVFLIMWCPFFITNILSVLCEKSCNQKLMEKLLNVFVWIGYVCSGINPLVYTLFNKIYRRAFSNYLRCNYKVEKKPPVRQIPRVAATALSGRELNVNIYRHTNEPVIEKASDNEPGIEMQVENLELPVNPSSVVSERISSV
Briefly: Human 5-HT2C functional assay in CHO-K1 cells (calcium flux, FLIPR). Particulars: for Emax: percentage relative to the effect of serotonin. Format: cell-based. Also on record: expressed in transfected cells; host or cells: CHO-K1 cells. The protocol:
as §1, §2, §3, §4

[1] abbreviates: CHO-K1, read-out: Emax (%), 5-HT2B Agonist Activity.
The mark [2] stands for this setting: CHO-K1, read-out: Emax (%), 5-HT2c Agonist Activity, CHO-K1 cells.
The mark [3] stands for this setting: CHO-K1 cells over-expressing 5HT2B, calcium flux, read-out: EC50 (μM), 5-HT2B Agonist Activity.
Setting [4] is: CHO-K1 cells over-expressing 5HT2C, calcium flux, read-out: EC50 (μM), 5-HT2c Agonist Activity.
[5] abbreviates: CHO-K1 cells, read-out: Emax (%), 5-HT2c Agonist Activity.
Where [6] appears, read: CHO-K1 cells, percentage relative to the effect of serotonin, read-out: Emax (%), 5-HT2B Agonist Activity.

Read-outs that look alike come from different tables or passages of the source. A value given as a limit tells only on which side of the number the result lay.

One may read the EC50 as the concentration that produces a half-maximal response. The term Emax denotes the greatest response seen or fitted, relative to the assay's reference.

T1 sequence (P41595 whole entry): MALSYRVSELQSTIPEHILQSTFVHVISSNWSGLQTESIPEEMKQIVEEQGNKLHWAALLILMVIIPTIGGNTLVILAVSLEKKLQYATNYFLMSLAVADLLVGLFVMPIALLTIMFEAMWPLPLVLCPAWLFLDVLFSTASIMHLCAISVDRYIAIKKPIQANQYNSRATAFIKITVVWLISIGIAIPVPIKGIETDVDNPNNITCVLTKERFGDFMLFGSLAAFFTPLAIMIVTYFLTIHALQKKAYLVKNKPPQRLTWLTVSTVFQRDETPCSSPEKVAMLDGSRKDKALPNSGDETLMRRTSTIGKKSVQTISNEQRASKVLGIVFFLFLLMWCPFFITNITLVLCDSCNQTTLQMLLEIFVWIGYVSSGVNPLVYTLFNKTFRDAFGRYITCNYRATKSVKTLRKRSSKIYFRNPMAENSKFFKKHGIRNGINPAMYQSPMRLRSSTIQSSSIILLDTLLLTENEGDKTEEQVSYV

For `[2H]c1ccc2c(c1)N1CCNC[C@@H]1CCO2` [Example 262, (4aS)-(10-^2H)-2,3,4,4a,5,6-hexahydro-1H-pyrazino[2,1-d][1,5]benzoxazepine], the EC50 amounted to 0.2 µM on 5HT2B receptors and 0.005 µM at 5HT2C receptors. For the same compound, the Emax on 5HT2B receptors (setting [1]) amounted to 15%; at 5HT2C receptors (setting [2]), 90%.

As for `C1=C(c2ccc3c(c2)N2CCNC[C@@H]2CCO3)CCCC1` [Example 209, (4aS)-10-(cyclohex-1-en-1-yl)-2,3,4,4a,5,6-hexahydro-1H-pyrazino[2,1-d][1,5]benzoxazepine], the EC50 at 5HT2B receptors (setting [3]) was greater than 10 µM; at 5HT2C receptors (setting [4]) it was 0.01 µM. Moreover, the Emax at 5HT2C receptors (setting [5]) was greater than 120%.

As for `O=C1CC2CNCCN2c2cccc(Cl)c2N1` (stereo not shown) [Example 110, 8-chloro-1,2,3,4,4a,5-hexahydropyrazino[1,2-a][1,5]benzodiazepin-6(7H)-one], the concentration giving a half-maximal response (EC50) on 5HT2B receptors was greater than 10 µM; on 5HT2C receptors, 0.005 µM. For the same compound, the Emax on 5HT2C receptors (setting [2]) is greater than 120%.

As to `Cn1cc(-c2ccc3c(c2)N2CCNCC2CC(=O)N3)cn1` (stereo not shown) [Example 60, 10-(1-methyl-1H-pyrazol-4-yl)-1,2,3,4,4a,5-hexahydropyrazino[1,2-a][1,5]benzodiazepin-6(7H)-one], the EC50 at 5HT2B receptors (setting [3]) came to 3 µM; on 5HT2C receptors (setting [4]) it was 0.4 µM. Moreover, the values for the Emax at 5HT2B receptors (setting [6]) and on 5HT2C receptors (setting [5]) were 50% and greater than 120%, respectively.

As to `c1ccc(-c2cccc3c2OCC[C@H]2CNCCN32)cc1` [Example 223, (4aS)-8-phenyl-2,3,4,4a,5,6-hexahydro-1H-pyrazino[2,1-d][1,5]benzoxazepine], the EC50 at 5HT2B receptors (setting [3]) was greater than 10 µM; on 5HT2C receptors (setting [4]), 0.02 µM. In addition, on 5HT2C receptors (setting [5]), the Emax turned out to be 100%.

For `Brc1ccc2c(c1)NCC[C@H]1CNCCN21` [Example 54, (4aS)-9-bromo-1,2,3,4,4a,5,6,7-octahydropyrazino[1,2-a][1,5]benzodiazepine], the EC50 on 5HT2B receptors is greater than 10 µM; at 5HT2C receptors, 0.07 µM. Moreover, the maximal effect (Emax) at 5HT2C receptors (setting [2]) stood at 110%.

With `Cc1ccc2c(c1)OCC[C@@H]1CNCCN21` [Example 259, (4aR)-9-methyl-2,3,4,4a,5,6-hexahydro-1H-pyrazino[2,1-d][1,5]benzoxazepine], the concentration giving a half-maximal response (EC50) on 5HT2B receptors stood at 0.1 µM; at 5HT2C receptors, 0.004 µM. Further, the figures for the Emax on 5HT2B receptors (setting [1]) and at 5HT2C receptors (setting [2]) were 70% and 100%, respectively.

In the case of `O=C1C[C@H]2CNCCN2c2cccc(F)c2N1` [Example 85, (4aS)-8-fluoro-1,2,3,4,4a,5-hexahydropyrazino[1,2-a][1,5]benzodiazepin-6(7H)-one], the EC50 on 5HT2B receptors is greater than 10 µM; on 5HT2C receptors, 0.0051 µM. In addition, at 5HT2C receptors (setting [2]), the Emax was greater than 120%.

For the compound `O=C1CC2CNCCN2c2cc(-c3cccc(OCc4ccccc4)c3)ccc2N1` (stereo not shown) [Example 95, 10-[3-(benzyloxy)phenyl]-1,2,3,4,4a,5-hexahydropyrazino[1,2-a][1,5]benzodiazepin-6(7H)-one], the figures for the EC50 on 5HT2B receptors (setting [3]) and at 5HT2C receptors (setting [4]) were greater than 10 µM and 0.02 µM, respectively. Moreover, the Emax at 5HT2C receptors (setting [5]) is greater than 120%.

Regarding `[2H]c1cccc2c1OCC[C@H]1CNCCN21` [Example 254, (4aS)-(8-^2H)-2,3,4,4a,5,6-hexahydro-1H-pyrazino[2,1-d][1,5]benzoxazepine], the EC50 at 5HT2B receptors stood at 0.09 µM; on 5HT2C receptors, 0.005 µM. Further, the Emax on 5HT2B receptors (setting [1]) amounted to 35%; on 5HT2C receptors (setting [2]) it was 115%.

On to `CCc1cccc2c1OCC[C@H]1CNCCN21` [Example 237, (4aS)-8-ethyl-2,3,4,4a,5,6-hexahydro-1H-pyrazino[2,1-d][1,5]benzoxazepine], for which the EC50 on 5HT2B receptors is greater than 10 µM; at 5HT2C receptors, 0.005 µM. On 5HT2C receptors (setting [2]), the maximum response (Emax) was determined as 90%.

On to `CC(C)N1CCN2c3ccccc3OCC[C@H]2C1` [Example 264, (4aS)-3-isopropyl-2,3,4,4a,5,6-hexahydro-1H-pyrazino[2,1-d][1,5]benzoxazepine], for which the results for the EC50 at 5HT2B receptors (setting [3]) and at 5HT2C receptors (setting [4]) were greater than 10 µM and 0.9 µM, respectively. Moreover, on 5HT2C receptors (setting [2]), the Emax was 50%.

For the compound `O=C1CC2CNCCN2c2cc(-c3ccccn3)ccc2N1` (stereo not shown) [Example 71, 10-(pyridin-2-yl)-1,2,3,4,4a,5-hexahydropyrazino[1,2-a][1,5]benzodiazepin-6(7H)-one], the EC50 was determined as 0.02 µM at 5HT2B receptors and 0.002 µM at 5HT2C receptors. The Emax on 5HT2B receptors (setting [1]) was 100%; on 5HT2C receptors (setting [2]), greater than 120%.

As for `Fc1cccc(-c2ccc3c(c2)N2CCNC[C@@H]2CCO3)c1` [Example 204, (4aS)-10-(3-fluorophenyl)-2,3,4,4a,5,6-hexahydro-1H-pyrazino[2,1-d][1,5]benzoxazepine], the values for the EC50 on 5HT2B receptors (setting [3]) and at 5HT2C receptors (setting [4]) were greater than 10 µM and 0.05 µM, respectively. Besides, the Emax at 5HT2C receptors (setting [5]) was greater than 120%.

For `CCOC(=O)c1ccc2c(c1)N1CCNCC1CC(=O)N2` (stereo not shown) [Example 50, ethyl 6-oxo-1,2,3,4,4a,5,6,7-octahydropyrazino[1,2-a][1,5]-benzodiazepine-10-carboxylate], the EC50 was greater than 10 µM on 5HT2B receptors (setting [3]) and 0.2 µM at 5HT2C receptors (setting [4]). At 5HT2C receptors (setting [5]), the maximum response (Emax) turned out to be 80%.

For `O=C1C[C@H]2CNCCN2c2cc(OCC3CC3)ccc2N1` [Example 170, (4aS)-10-(cyclopropylmethoxy)-1,2,3,4,4a,5-hexahydropyrazino[1,2-a][1,5]benzodiazepin-6(7H)-one], the EC50 at 5HT2B receptors (setting [3]) is greater than 10 µM; on 5HT2C receptors (setting [4]), 0.02 µM. For the same compound, the maximal effect (Emax) on 5HT2C receptors (setting [5]) was greater than 120%.

With `CC(=O)c1ccc(-c2ccc3c(c2)N2CCNC[C@@H]2CCO3)cc1` [Example 199, 1-{4-[(4aS)-2,3,4,4a,5,6-hexahydro-1H-pyrazino[2,1-d][1,5]benzoxazepin-10-yl]phenyl}ethanone], the EC50 on 5HT2B receptors (setting [3]) turned out to be 8 µM; at 5HT2C receptors (setting [4]), 0.9 µM. The values for the Emax at 5HT2B receptors (setting [6]) and on 5HT2C receptors (setting [5]) were 10% and greater than 120%, respectively.

For `O=C1CC2CNCCN2c2cc(OCc3cccc(F)c3)ccc2N1` (stereo not shown) [Example 156, 10-[(3-fluorobenzyl)oxy]-1,2,3,4,4a,5-hexahydropyrazino[1,2-a][1,5]benzodiazepin-6(7H)-one], the EC50 at 5HT2B receptors (setting [3]) worked out at 0.35 µM; on 5HT2C receptors (setting [4]) it was 0.0059 µM. Moreover, the results for the maximum response (Emax) at 5HT2B receptors (setting [6]) and on 5HT2C receptors (setting [5]) were 77% and greater than 120%, respectively.

For `O=C1CC2CNCCN2c2cc(-c3cnc4ccccc4c3)ccc2N1` (stereo not shown) [Example 62, 10-(quinolin-3-yl)-1,2,3,4,4a,5-hexahydropyrazino[1,2-a][1,5]benzodiazepin-6(7H)-one], the EC50 at 5HT2B receptors (setting [3]) was 0.9 µM; on 5HT2C receptors (setting [4]), 0.06 µM. For the same compound, the Emax was 60% at 5HT2B receptors (setting [6]) and greater than 120% at 5HT2C receptors (setting [5]).

Regarding `CC(O)c1cccc(-c2ccc3c(c2)OCC[C@H]2CNCCN32)c1` (stereo partly drawn) [Example 229, 1-{3-[(4aS)-2,3,4,4a,5,6-hexahydro-1H-pyrazino[2,1-d][1,5]benzoxazepin-9-yl]phenyl}ethanol], the EC50 was greater than 10 µM at 5HT2B receptors (setting [3]) and 0.02 µM on 5HT2C receptors (setting [4]). In addition, the Emax on 5HT2C receptors (setting [5]) came out at 100%.

With `Fc1cccc2c1OCC[C@H]1CNCCN21` [Example 139, (4aS)-8-fluoro-2,3,4,4a,5,6-hexahydro-1H-pyrazino[2,1-d][1,5]benzoxazepine], the results for the concentration for a half-maximal effect (EC50) on 5HT2B receptors and at 5HT2C receptors were 0.06 µM and 0.0004 µM, respectively. The Emax at 5HT2B receptors (setting [1]) was 20%; at 5HT2C receptors (setting [2]), greater than 120%.

Regarding `CN1CCN2c3cc(Cl)ccc3OCC[C@H]2C1` [Example 188, (4aS)-10-chloro-3-methyl-2,3,4,4a,5,6-hexahydro-1H-pyrazino[2,1-d][1,5]benzoxazepine], the results for the EC50 on 5HT2B receptors and at 5HT2C receptors were greater than 10 µM and 0.01 µM, respectively. Further, the Emax on 5HT2C receptors (setting [2]) came to 70%.

Take `Cc1ccccc1-c1ccc2c(c1)N1CCNC[C@@H]1CCO2` [Example 189, (4aS)-10-(2-methylphenyl)-2,3,4,4a,5,6-hexahydro-1H-pyrazino[2,1-d][1,5]benzoxazepine]: the concentration for a half-maximal effect (EC50) worked out at 1 µM at 5HT2B receptors (setting [3]) and 0.03 µM at 5HT2C receptors (setting [4]). Besides, the Emax is 20% at 5HT2B receptors (setting [6]) and greater than 120% at 5HT2C receptors (setting [5]).
